20 compounds from PubChem BioAssay AID330 (DTP/NCI, 2004) can be followed below.

The experiment relates to P388 leukemia ip, CD2F1 mice, survival T/C. Kind of experiment: NCI In Vivo Anticancer Drug Screen. Data for tumor model P388 Leukemia (intraperitoneal) in CD2F1 (CDF1) mice. To be noted: endpoint: median survival time, higher = longer survival. The method in brief:
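Mice carrying the transplanted tumor received test compound or vehicle. Survival was recorded in each group, and the value is the treated-group measurement divided by that of the vehicle-treated control group.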

[1] abbreviates: dose: 60.0 mg/kg/injection, schedule: Q01DX005 (ip), vehicle: saline with Tween-80.
Setting [2] is: dose: 120.0 mg/kg/injection, schedule: Q01DX005 (ip), vehicle: saline with Tween-80.
The mark [3] stands for this setting: dose: 240.0 mg/kg/injection, schedule: Q01DX005 (ip), vehicle: saline with Tween-80.
The mark [4] stands for this setting: dose: 25.0 mg/kg/injection, schedule: Q01DX005 (ip), vehicle: saline with Tween-80.
Setting [5] is: dose: 50.0 mg/kg/injection, schedule: Q01DX005 (ip), vehicle: saline with Tween-80.
Where [6] appears, read: dose: 100.0 mg/kg/injection, schedule: Q01DX005 (ip), vehicle: saline with Tween-80.
The mark [7] stands for this setting: dose: 50.0 mg/kg/injection, schedule: Q04DX003 (ip), vehicle: saline with Tween-80.
[8] abbreviates: dose: 50.0 mg/kg/injection, schedule: Q01DX009 (ip), vehicle: saline with Tween-80.
The mark [9] stands for this setting: dose: 50.0 mg/kg/injection, schedule: Q01DX009 (ip), vehicle: saline.
[10] abbreviates: dose: 100.0 mg/kg/injection, schedule: Q01DX009 (ip), vehicle: saline with Tween-80.
Where [11] appears, read: dose: 200.0 mg/kg/injection, schedule: Q01DX009 (ip), vehicle: saline with Tween-80.

The structures appear in SMILES notation. “And” between values parts separate entries of the source, which are not always exact repeats. Equal values may be shown once. Toxic doses and inconclusive results are not listed.

With `COc1ccc(C(c2cc3c(cc2O)OCO3)N2CCCCC2)cc1` (stereo not given), the T/C is, setting by setting: under setting [1], 114 % of control; under setting [2], 112 % of control; under setting [3], 121 % of control.
Take `CCN1C(=O)N(CC)C2(CC(=O)c3ccccc3O2)C1=O` (stereo not given): the T/C reads like this: (dose: 60.0 mg/kg/injection, schedule: Q01DX005 (ip), vehicle: saline) 111 % of control; (dose: 120.0 mg/kg/injection, schedule: Q01DX005 (ip), vehicle: saline) 108 % of control; (dose: 240.0 mg/kg/injection, schedule: Q01DX005 (ip), vehicle: saline) 110 % of control.
Regarding `O=C1NC(=O)C2(CC3CCCC(C2)N3)N1` (stereo not given), the T/C by setting is: (dose: 100.0 mg/kg/injection, schedule: Q04DX003 (ip), vehicle: water) 101 % of control; (dose: 200.0 mg/kg/injection, schedule: Q04DX003 (ip), vehicle: water) 99 % of control; (dose: 400.0 mg/kg/injection, schedule: Q04DX003 (ip), vehicle: water) 103 % of control.
With `COC(=O)/C=C1/Nc2c(N)nc(N)nc2NC1=O`, the T/C is 108 % of control (dose: 100.0 mg/kg/injection, schedule: Q04DX003 (ip), vehicle: saline); 94 % of control (dose: 200.0 mg/kg/injection, schedule: Q04DX003 (ip), vehicle: saline); 95 % of control (dose: 400.0 mg/kg/injection, schedule: Q04DX003 (ip), vehicle: saline).
Regarding `CCCCCCCCCCCCCC(=O)OC1C(C)C2(O)C(C=C(CO)CC3(O)C(O)C(C)=CC32)C2C(C)(C)C12OC(C)=O` (stereo not given), the T/C is, setting by setting: (dose: 0.12 mg/kg/injection, schedule: Q01DX009 (ip), vehicle: saline) 106 % of control; (dose: 0.25 mg/kg/injection, schedule: Q01DX009 (ip), vehicle: saline) 101 % of control; (dose: 0.5 mg/kg/injection, schedule: Q01DX009 (ip), vehicle: saline) 111 % of control; (dose: 1.0 mg/kg/injection, schedule: Q01DX009 (ip), vehicle: saline) 99 % of control; (dose: 2.0 mg/kg/injection, schedule: Q01DX009 (ip), vehicle: saline) 101 % of control.
Consider `COc1ccc(=NC(C)=O)c2c(O)c3c(=O)c4[nH]c5c(OC)ccc(=NC(C)=O)c5c(O)c4c(=O)c3[nH]c12`, for which the T/C is, setting by setting: (dose: 50.0 mg/kg/injection, schedule: Q01DX009 (ip), vehicle: Klucel (hydroxypropylcellulose) (HPC)) 89 % of control; (dose: 100.0 mg/kg/injection, schedule: Q01DX009 (ip), vehicle: Klucel (hydroxypropylcellulose) (HPC)) 99 % of control; (dose: 200.0 mg/kg/injection, schedule: Q01DX009 (ip), vehicle: Klucel (hydroxypropylcellulose) (HPC)) 99 % of control.
In the case of `Cc1nnn(NC(=O)Cc2ccccc2)c1C`, the T/C was 98 % of control (dose: 100.0 mg/kg/injection, schedule: Q01DX001 (ip), vehicle: Klucel (hydroxypropylcellulose) (HPC)); 99 % of control (dose: 200.0 mg/kg/injection, schedule: Q01DX001 (ip), vehicle: Klucel (hydroxypropylcellulose) (HPC)); 99 % of control (dose: 400.0 mg/kg/injection, schedule: Q01DX001 (ip), vehicle: Klucel (hydroxypropylcellulose) (HPC)).
Consider `C=CC(C)(C)c1cc2cc3c(cc2oc1=O)OC1(C)CCC(C(C)(C)O)OC1C3` (stereo not given), for which the T/C is 99 % of control (dose: 12.5 mg/kg/injection, schedule: Q01DX005 (ip), vehicle: saline with Tween-80); 99 % of control under setting [4]; 93 % of control under setting [5]; 89 % of control under setting [6].
In the case of `c1ccc(CCN2COc3c(ccc4cccnc34)C2)cc1`, the T/C was 110 % of control (dose: 25.0 mg/kg/injection, schedule: Q04DX003 (ip), vehicle: saline with Tween-80); 110 % of control under setting [7]; 100 % of control (dose: 100.0 mg/kg/injection, schedule: Q04DX003 (ip), vehicle: saline with Tween-80).
In the case of `CC1=C(C)OP(=O)(O)O1`, the T/C is, setting by setting: under setting [8], 100 % of control; under setting [9], 100 % of control; under setting [10], 100 % of control; (dose: 100.0 mg/kg/injection, schedule: Q01DX009 (ip), vehicle: saline) 96 % of control; under setting [11], 95 % of control; (dose: 200.0 mg/kg/injection, schedule: Q01DX009 (ip), vehicle: saline) 100 % of control.
On to `S=P(N1CCCCCC1)(N1CC1)N1CC1`, for which the T/C was 109 % of control (dose: 12.5 mg/kg/injection, schedule: Q04DX003 (ip), vehicle: saline with Tween-80); 108 % of control (dose: 16.5 mg/kg/injection, schedule: Q01DX009 (ip), vehicle: saline); 109 % of control (dose: 33.0 mg/kg/injection, schedule: Q04DX003 (ip), vehicle: saline sonified); 183 % of control (dose: 37.5 mg/kg/injection, schedule: Q01DX009 (ip), vehicle: saline); 95 % of control under setting [9]; 118 % of control (dose: 50.0 mg/kg/injection, schedule: Q04DX003 (ip), vehicle: saline sonified). Also, the T/C under setting [7] was 154 % of control.
As to `N#Cc1c(N)nc2c(c(-c3ccc(Cl)cc3)nn2-c2ccccc2)c1C#N`, the T/C (dose: 7.5 mg/kg/injection, schedule: Q01DX005 (ip), vehicle: saline with Tween-80) is 97 % of control; the T/C (dose: 15.0 mg/kg/injection, schedule: Q01DX005 (ip), vehicle: saline with Tween-80) was 86 % of control and 96 % of control; the T/C (dose: 30.0 mg/kg/injection, schedule: Q01DX005 (ip), vehicle: saline with Tween-80) was 89 % of control and 90 % of control; the T/C under setting [2] is 86 % of control and 91 % of control; the T/C under setting [3] was 93 % of control.
Regarding `CC(=O)NCc1cccc([N+](=O)[O-])c1`, the T/C under setting [4] is 100 % of control; the T/C under setting [5] was 103 % of control; the T/C under setting [6] is 100 % of control; the T/C (dose: 200.0 mg/kg/injection, schedule: Q01DX005 (ip), vehicle: saline with Tween-80) is 105 % of control.
`Cc1coc2c1C1OC(=O)C3(C/C=C\C(C)C2)OC13` (stereo not given): the T/C was 100 % of control (dose: 5625.0 micrograms/kg/injection, schedule: Q01DX005 (ip), vehicle: Klucel (hydroxypropylcellulose) (HPC)); 100 % of control (dose: 11250.0 micrograms/kg/injection, schedule: Q01DX005 (ip), vehicle: Klucel (hydroxypropylcellulose) (HPC)); 100 % of control (dose: 22500.0 micrograms/kg/injection, schedule: Q01DX005 (ip), vehicle: Klucel (hydroxypropylcellulose) (HPC)).
For the compound `CCOc1c(N=Nc2ccc(OC)cc2)c(C)nn1C(=S)SC`, the T/C runs as follows: (dose: 60.0 mg/kg/injection, schedule: Q01DX005 (ip), vehicle: Klucel + Tween-80) 92 % of control; (dose: 120.0 mg/kg/injection, schedule: Q01DX005 (ip), vehicle: Klucel + Tween-80) 92 % of control; (dose: 240.0 mg/kg/injection, schedule: Q01DX005 (ip), vehicle: Klucel + Tween-80) 89 % of control.
`CN(C)CCCNCCCCNCCCN(C)C`: the T/C under setting [8] was 105 % of control, the T/C under setting [10] was 110 % of control and the T/C under setting [11] was 110 % of control.
`O=C1C=C(Br)C(=O)C(Br)=C1`: the T/C is 101 % of control (dose: 1.56 mg/kg/injection, schedule: Q01DX009 (ip), vehicle: distilled water + Tween-80); 95 % of control (dose: 3.13 mg/kg/injection, schedule: Q01DX009 (ip), vehicle: distilled water + Tween-80); 100 % of control (dose: 6.25 mg/kg/injection, schedule: Q01DX009 (ip), vehicle: distilled water + Tween-80).
Regarding `COc1cc2c(cc1OC)[Se](Br)(Br)c1cc(OC)c(OC)cc1[Se]2`, the T/C is 107 % of control under setting [1], 98 % of control under setting [2] and 100 % of control under setting [3].
For the compound `COc1cc(C=Nc2ccc(Cl)cc2)ccc1N(CCCl)CCCl`, the T/C is, setting by setting: (dose: 0.44 mg/kg/injection, schedule: Q01DX009 (ip), vehicle: saline with Tween-80) 100 % of control; (dose: 0.66 mg/kg/injection, schedule: Q01DX009 (ip), vehicle: saline with Tween-80) 100 % of control; (dose: 1.0 mg/kg/injection, schedule: Q01DX009 (ip), vehicle: saline with Tween-80) 109 % of control; (dose: 2.5 mg/kg/injection, schedule: Q01DX009 (ip), vehicle: saline with Tween-80) 95 % of control; (dose: 5.0 mg/kg/injection, schedule: Q01DX009 (ip), vehicle: saline with Tween-80) 157 % of control; under setting [7], 204 % of control.
In the case of `CN1CCc2cccc3c2[C@H]1Cc1ccc(O)c(O)c1-3`, the T/C by setting is: (dose: 50.0 mg/kg/injection, schedule: Q01DX005 (ip), vehicle: Klucel (hydroxypropylcellulose) (HPC)) 95 % of control; (dose: 100.0 mg/kg/injection, schedule: Q01DX005 (ip), vehicle: Klucel (hydroxypropylcellulose) (HPC)) 92 % of control.
